IC50 and Activity data for 28 compounds are collected here from ChEMBL document CHEMBL1154996, “Inhibitors of dipeptidyl peptidase 8 and dipeptidyl peptidase 9. Part 2: isoindoline containing inhibitors” (Bioorg Med Chem Lett, 2008).

Each structure is given as a SMILES string. Calls of active or inactive are those of the source. No cut-off for these calls is given here.

One test addresses Dipeptidyl peptidase 4 (Homo sapiens, UniProt P27487). The test can be described thus: Inhibition of DPP4.
The target in the next test is Dipeptidyl peptidase 8 (Homo sapiens, UniProt Q6V1X1). The test can be described thus: Inhibition of DPP8.
For another test, the target named is Dipeptidyl peptidase 9 (Homo sapiens, UniProt Q86TI2). The test is described as follows: Inhibition of DPP9.
For a further test, the target named is Dipeptidyl peptidase 2 (Homo sapiens, UniProt Q9UHL4). The test is described as follows: Inhibition of DPP2.

As usually defined, the IC50 is the concentration that gives 50% inhibition. A low value points to greater potency.

Sequence of Dipeptidyl peptidase 9 (Q86TI2 whole entry): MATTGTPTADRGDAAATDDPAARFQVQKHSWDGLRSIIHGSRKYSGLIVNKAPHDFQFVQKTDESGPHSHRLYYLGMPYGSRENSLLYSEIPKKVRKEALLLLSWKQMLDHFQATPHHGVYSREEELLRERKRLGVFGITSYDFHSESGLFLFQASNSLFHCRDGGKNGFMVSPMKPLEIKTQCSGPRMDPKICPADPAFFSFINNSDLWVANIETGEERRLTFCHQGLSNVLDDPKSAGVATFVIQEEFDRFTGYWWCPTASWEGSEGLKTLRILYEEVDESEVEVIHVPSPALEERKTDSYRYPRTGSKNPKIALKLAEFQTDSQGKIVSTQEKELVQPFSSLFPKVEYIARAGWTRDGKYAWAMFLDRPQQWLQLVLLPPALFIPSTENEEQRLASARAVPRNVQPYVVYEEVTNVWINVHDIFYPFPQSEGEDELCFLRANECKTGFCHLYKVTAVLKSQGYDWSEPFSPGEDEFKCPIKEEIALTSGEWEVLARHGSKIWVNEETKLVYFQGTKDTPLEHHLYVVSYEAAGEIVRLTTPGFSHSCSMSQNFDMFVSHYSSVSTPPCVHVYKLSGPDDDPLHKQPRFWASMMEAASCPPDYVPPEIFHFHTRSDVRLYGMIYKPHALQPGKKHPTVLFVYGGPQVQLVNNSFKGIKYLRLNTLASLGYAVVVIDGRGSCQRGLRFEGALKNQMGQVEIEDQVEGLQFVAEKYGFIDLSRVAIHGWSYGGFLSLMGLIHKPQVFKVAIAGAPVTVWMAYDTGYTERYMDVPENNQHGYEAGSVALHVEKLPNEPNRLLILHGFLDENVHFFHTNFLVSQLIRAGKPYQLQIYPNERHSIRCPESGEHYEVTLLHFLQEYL
Sequence of Dipeptidyl peptidase 8 (Q6V1X1 whole entry): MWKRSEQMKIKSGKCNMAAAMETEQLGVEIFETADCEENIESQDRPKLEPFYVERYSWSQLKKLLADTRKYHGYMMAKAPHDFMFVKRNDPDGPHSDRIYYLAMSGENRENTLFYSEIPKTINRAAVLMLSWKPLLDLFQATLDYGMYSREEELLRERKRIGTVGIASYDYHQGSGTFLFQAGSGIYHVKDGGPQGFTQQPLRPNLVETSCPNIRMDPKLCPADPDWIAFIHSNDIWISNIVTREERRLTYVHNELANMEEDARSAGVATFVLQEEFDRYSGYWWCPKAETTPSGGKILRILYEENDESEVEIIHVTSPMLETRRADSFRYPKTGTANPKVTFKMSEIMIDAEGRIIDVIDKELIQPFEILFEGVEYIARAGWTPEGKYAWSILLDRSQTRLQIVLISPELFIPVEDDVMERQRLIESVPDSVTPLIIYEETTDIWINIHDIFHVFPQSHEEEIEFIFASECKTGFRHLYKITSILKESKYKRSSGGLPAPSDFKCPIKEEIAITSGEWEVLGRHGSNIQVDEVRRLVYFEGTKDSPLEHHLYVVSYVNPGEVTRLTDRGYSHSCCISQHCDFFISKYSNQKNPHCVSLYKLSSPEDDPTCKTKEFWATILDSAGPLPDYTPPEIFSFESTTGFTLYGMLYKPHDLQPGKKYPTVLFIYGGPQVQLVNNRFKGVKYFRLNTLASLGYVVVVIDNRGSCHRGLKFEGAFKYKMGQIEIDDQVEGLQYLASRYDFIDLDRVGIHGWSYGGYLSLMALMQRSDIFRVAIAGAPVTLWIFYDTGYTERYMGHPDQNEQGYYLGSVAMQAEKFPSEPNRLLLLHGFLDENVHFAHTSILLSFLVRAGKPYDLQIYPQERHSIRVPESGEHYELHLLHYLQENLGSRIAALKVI

Take `CC[C@@H](C)[C@H](N)C(=O)N1Cc2ccc(C)cc2C1`: on Dipeptidyl peptidase 4, the IC50 is above 100 µM. The same measure, in the same setting: then `N[C@@H](CCCCNCc1ccccc1)C(=O)N1Cc2ccccc2C1`, with above 50 µM. Take `CC[C@H](C)[C@H](N)C(=O)N1Cc2ccc(C(F)(F)F)cc2C1`: the concentration for half-maximal inhibition (IC50) is above 100 µM against Dipeptidyl peptidase 8, above 100 µM against Dipeptidyl peptidase 9, above 100 µM on Dipeptidyl peptidase 4 and 13 µM on Dipeptidyl peptidase 2.

Compound `N[C@@H](CCCCN(c1ccc2ccccc2c1)c1ccc2ccccc2c1)C(=O)N1Cc2ccccc2C1` displayed an IC50 against Dipeptidyl peptidase 4 above 31.2 µM. The same measure, in the same setting: the value for `CC[C@H](C)[C@H](N)C(=O)N1Cc2ccc(Br)cc2C1` was above 100 µM.

`O=C([C@@H]1C[C@H](N(c2ccc3ccccc3c2)c2ccc3ccccc3c2)CN1)N1Cc2ccccc2C1` displayed an IC50 against Dipeptidyl peptidase 2 above 100 µM. On to `CC[C@H](C)[C@H](N)C(=O)N1Cc2ccc([N+](=O)[O-])cc2C1`, for which the IC50 at Dipeptidyl peptidase 8 was above 50 µM; at Dipeptidyl peptidase 9, above 25 µM; against Dipeptidyl peptidase 4 it was above 50 µM; against Dipeptidyl peptidase 2, 66 µM. Regarding `O=C([C@@H]1C[C@H](Nc2cccc3ccccc23)CN1)N1Cc2ccccc2C1`, the IC50 against Dipeptidyl peptidase 4 amounted to 4.97 µM. On the same count and under the same terms, the value for `O=C([C@@H]1C[C@H](Nc2ccc3ccccc3c2)CN1)N1Cc2ccccc2C1` was above 100 µM. For the compound `CC[C@H](C)[C@H](N)C(=O)N1Cc2ccc(N=[N+]=[N-])cc2C1`, the IC50 was above 100 µM against Dipeptidyl peptidase 8, above 100 µM against Dipeptidyl peptidase 4 and above 50 µM against Dipeptidyl peptidase 2.

At Dipeptidyl peptidase 4, `O=C([C@@H]1C[C@H](NCc2ccccc2)CN1)N1Cc2ccccc2C1` yielded an IC50 above 250 µM. The same measure, in the same setting: then `O=C([C@@H]1C[C@@H](NCc2ccccc2)CN1)N1Cc2ccccc2C1`, with above 1000 µM.

Consider `CC[C@H](C)[C@H](N)C(=O)N1Cc2cccnc2C1`, for which the IC50 against Dipeptidyl peptidase 4 and against Dipeptidyl peptidase 2 was above 100 µM in each case. For `N[C@H]1CN[C@H](C(=O)N2Cc3ccccc3C2)C1`, the IC50 at Dipeptidyl peptidase 4 was above 500 µM.

In turn, `NCCCC[C@H](N)C(=O)N1Cc2ccccc2C1` came in with an IC50 on Dipeptidyl peptidase 4 of 161 µM. For the compound `CC[C@H](C)[C@H](N)C(=O)N1Cc2ccc(C(C)(C)C)cc2C1`, the IC50 on Dipeptidyl peptidase 8, against Dipeptidyl peptidase 9, at Dipeptidyl peptidase 4 and on Dipeptidyl peptidase 2 was above 100 µM throughout. For the compound `CC[C@@H](C)[C@H](N)C(=O)N1Cc2ccc(C(F)(F)F)cc2C1`, the IC50 at Dipeptidyl peptidase 8 is above 100 µM; on Dipeptidyl peptidase 9, above 100 µM; on Dipeptidyl peptidase 4 it was above 100 µM; against Dipeptidyl peptidase 2 it was 12.6 µM. For the compound `N[C@@H](CCCCNc1ccc2ccccc2c1)C(=O)N1Cc2ccccc2C1`, inhibition against Dipeptidyl peptidase 4 was half-maximal at 178 µM (IC50). Consider `O=C([C@@H]1C[C@H](N(c2cccc3ccccc23)c2cccc3ccccc23)CN1)N1Cc2ccccc2C1`, for which the outcome on Dipeptidyl peptidase 4 was inactive. Regarding `N[C@@H](CCCCNC(=O)OCc1ccccc1)C(=O)N1Cc2ccccc2C1`, the concentration for half-maximal inhibition (IC50) is 245 µM against Dipeptidyl peptidase 4 and 2.5 µM at Dipeptidyl peptidase 2.

Take `O=C([C@@H]1C[C@@H](Nc2ccc3ccccc3c2)CN1)N1Cc2ccccc2C1`: the IC50 on Dipeptidyl peptidase 4 is above 250 µM. Turning to `O=C([C@@H]1C[C@@H](N(Cc2ccccc2)Cc2ccccc2)CN1)N1Cc2ccccc2C1`, the results for the IC50 against Dipeptidyl peptidase 9, on Dipeptidyl peptidase 4 and against Dipeptidyl peptidase 2 were above 25 µM, above 500 µM and 4.5 µM, respectively. Compound `N[C@@H](CCCCN(Cc1ccccc1)Cc1ccccc1)C(=O)N1Cc2ccccc2C1` came in with an IC50 on Dipeptidyl peptidase 4 above 62.5 µM. Same read-out and setting: the value for `CC[C@H](C)[C@H](N)C(=O)N1Cc2ccc(C)cc2C1` was above 100 µM. For `CC[C@H](C)[C@H](N)C(=O)N1Cc2ccc(I)cc2C1`, the half-inhibitory concentration (IC50) was above 25 µM against Dipeptidyl peptidase 8, above 50 µM at Dipeptidyl peptidase 9, above 100 µM on Dipeptidyl peptidase 4 and 2.6 µM at Dipeptidyl peptidase 2.

For `CC[C@@H](C)[C@H](N)C(=O)N1Cc2cccc(F)c2C1`, at Dipeptidyl peptidase 4, the concentration for half-maximal inhibition (IC50) is above 100 µM. In the case of `CC[C@H](C)[C@H](N)C(=O)N1Cc2cccc(C)c2C1`, the IC50 against Dipeptidyl peptidase 8, on Dipeptidyl peptidase 9, against Dipeptidyl peptidase 4 and against Dipeptidyl peptidase 2 was above 100 µM each time. In turn, `CC[C@H](C)[C@H](N)C(=O)N1Cc2cccc(F)c2C1` gave an IC50 against Dipeptidyl peptidase 4 above 100 µM.
